# Patent US8680367B2, “Method to prime plants in order to increase their pathogen resistance” (priority 2004, dated 2014)
# System: callose deposition
# Assay: Callose deposition in Arabidopsis after Peronospora parasitica infection
# Assay type: in vivo
# Settings: positive control plants treated with BABA
# Description: This is represented by the disease index on the Y axis. […] Resistance assays were performed as described previously (Plant Cell 1996, 8, 1225-1237; Plant cell 1998, 10, 1571-1580). B. KO of RKS4 (rks4-1; increased expression of N-terminus, see FIG. 4) also increases resistance to Peronospora parasitica, although less than the positive control induced with β-aminobutyric acid (BABA). Plants were scored using an arbitrary scale I-IV, in which I means normal to very slight symptoms and IV means severe symptoms to death. C. […] Both tests were performed as described in (Plant Cell., 2005, 17, 987-999).
# Callose deposition was observed on Arabidopsis leaves after infection with Hyaloperonospora parasitica essentially as described by Ton et al. (Plant Cell (2005) 17(3):987-999).
compound,measurement,value
"CC(N)CC(=O)O (stereo not drawn) [BABA, β-aminobutyric acid]",Callose deposition upon treatment,increased
